Source: PubChem BioAssay AID248 (DTP/NCI, 2004)
Where “and” joins values, the source holds several entries; their conditions need not be identical. Identical values can stand only once. Inconclusive results and toxic doses are left out.

Tested on: L1210 leukemia ip in BDF1 mice, survival T/C
Assay: NCI In Vivo Anticancer Drug Screen. Data for tumor model L1210 Leukemia (intraperitoneal) in B6D2F1 (BDF1) mice
Settings: endpoint: mean survival time, higher = longer survival
How it was run: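 Tumor cells were implanted, animals were treated, and survival was followed. The result divides the treated measurement by the vehicle-control measurement.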

[1] = dose: 100.0 mg/kg/injection, schedule: Q04DX003 (ip), vehicle: Klucel (hydroxypropylcellulose) (HPC)
[2] = dose: 200.0 mg/kg/injection, schedule: Q04DX003 (ip), vehicle: Klucel (hydroxypropylcellulose) (HPC)
[3] = dose: 400.0 mg/kg/injection, schedule: Q04DX003 (ip), vehicle: Klucel (hydroxypropylcellulose) (HPC)
[4] = dose: 100.0 mg/kg/injection, schedule: Q01DX009 (ip), vehicle: Klucel (hydroxypropylcellulose) (HPC)
[5] = dose: 200.0 mg/kg/injection, schedule: Q01DX009 (ip), vehicle: Klucel (hydroxypropylcellulose) (HPC)
[6] = dose: 400.0 mg/kg/injection, schedule: Q01DX009 (ip), vehicle: Klucel (hydroxypropylcellulose) (HPC)
[7] = dose: 100.0 mg/kg/injection, schedule: Q01DX001 (ip), vehicle: carboxymethylcellulose (CMC)
[8] = dose: 200.0 mg/kg/injection, schedule: Q01DX001 (ip), vehicle: carboxymethylcellulose (CMC)
[9] = dose: 400.0 mg/kg/injection, schedule: Q01DX001 (ip), vehicle: carboxymethylcellulose (CMC)
[10] = dose: 100.0 mg/kg/injection, schedule: Q01DX001 (ip), vehicle: saline
[11] = dose: 200.0 mg/kg/injection, schedule: Q01DX001 (ip), vehicle: saline
[12] = dose: 400.0 mg/kg/injection, schedule: Q01DX001 (ip), vehicle: saline
[13] = dose: 100.0 mg/kg/injection, schedule: Q04DX003 (ip), vehicle: saline with Tween-80
[14] = dose: 200.0 mg/kg/injection, schedule: Q04DX003 (ip), vehicle: saline with Tween-80
[15] = dose: 400.0 mg/kg/injection, schedule: Q04DX003 (ip), vehicle: saline with Tween-80
[16] = dose: 100.0 mg/kg/injection, schedule: Q01DX009 (ip), vehicle: gum acacia
[17] = dose: 200.0 mg/kg/injection, schedule: Q01DX009 (ip), vehicle: gum acacia
[18] = dose: 400.0 mg/kg/injection, schedule: Q01DX009 (ip), vehicle: gum acacia

In the case of `COC(=O)NS(=O)(=O)c1cccn1C`, the T/C (dose: 100.0 mg/kg/injection, schedule: Q01DX001 (ip), vehicle: Klucel (hydroxypropylcellulose) (HPC)) is reported as 106 % of control, the T/C [1] is reported as 106 % of control and the T/C (dose: 200.0 mg/kg/injection, schedule: Q01DX001 (ip), vehicle: Klucel (hydroxypropylcellulose) (HPC)) is reported as 104 % of control. For the same molecule, the T/C [2] was 100 % of control, the T/C (dose: 400.0 mg/kg/injection, schedule: Q01DX001 (ip), vehicle: Klucel (hydroxypropylcellulose) (HPC)) was 104 % of control and the T/C [3] was 95 % of control.

`O=C1OC(=C(Br)Br)C2C3C=CC(C3)C12` (stereo unspecified) was tested, and the T/C (dose: 100.0 mg/kg/injection, schedule: Q04DX003 (ip), vehicle: saline) was 98 % of control and the T/C (dose: 200.0 mg/kg/injection, schedule: Q04DX003 (ip), vehicle: saline) was 107 % of control.

With `CCOC(=O)CNC(=O)Nc1cccc(Cl)c1Cl` the T/C [4] was 102 % of control, the T/C [5] was 98 % of control and the T/C [6] was 98 % of control.

For `CC(=Nc1ccccc1)C1=C(O)C(CC(C)C)NC1=O` (stereo unspecified), the T/C (dose: 50.0 mg/kg/injection, schedule: Q01DX001 (ip), vehicle: carboxymethylcellulose (CMC)) was 95 % of control, the T/C [7] was 104 % of control and the T/C [8] was 101 % of control. For the same molecule, the T/C [9] was 101 % of control.

`Cn1c2c(c(=O)n(C)c1=O)NC1(N2)C(=O)Nc2ccccc21` (stereo unspecified) was tested, and the T/C [10] was 101 % of control, the T/C [11] was 98 % of control and the T/C [12] was 101 % of control.

In the case of `Cc1nc(N)c(Cl)nc1C`, the T/C (dose: 50.0 mg/kg/injection, schedule: Q01DX009 (ip), vehicle: saline with Tween-80) is reported as 96 % of control, the T/C (dose: 100.0 mg/kg/injection, schedule: Q01DX009 (ip), vehicle: saline with Tween-80) is reported as 100 % of control and 104 % of control and the T/C [13] is reported as 102 % of control. The T/C (dose: 200.0 mg/kg/injection, schedule: Q01DX009 (ip), vehicle: saline with Tween-80) was 97 % of control and 98 % of control, the T/C [14] was 96 % of control and the T/C [15] was 88 % of control.

For `COc1ccc(C(=O)CC(O)(C(F)(F)F)C(F)(F)F)cc1F`, the T/C [1] was 103 % of control, the T/C [2] was 106 % of control and the T/C [3] was 95 % of control.

`O=[N+]([O-])c1ccc(-c2cccc(Cl)c2)c([N+](=O)[O-])c1` was tested, and the T/C [7] was 91 % of control, the T/C [8] was 91 % of control and the T/C [9] was 95 % of control.

With `O=C(Nc1ccc(C2=NCCN2)cc1)c1ccc(CNc2ccc(C3=NCCN3)cc2)cc1` the T/C (dose: 0.5 mg/kg/injection, schedule: Q01DX Z (ip), vehicle: water) was 93 % of control, the T/C (dose: 1.0 mg/kg/injection, schedule: Q01DX Z (ip), vehicle: water) was 96 % of control and the T/C (dose: 2.0 mg/kg/injection, schedule: Q01DX Z (ip), vehicle: water) was 113 % of control. For the same molecule, the T/C (dose: 4.0 mg/kg/injection, schedule: Q01DX Z (ip), vehicle: water) was 111 % of control, the T/C (dose: 6.25 mg/kg/injection, schedule: Q01DX Z (ip), vehicle: water) was 159 % of control and the T/C (dose: 12.5 mg/kg/injection, schedule: Q01DX Z (ip), vehicle: water) was 276 % of control. For the same molecule, the T/C (dose: 25.0 mg/kg/injection, schedule: Q01DX Z (ip), vehicle: water) was 188 % of control.

With `O=c1onc(-c2ccccc2)c2ccccc12` the T/C (dose: 12.5 mg/kg/injection, schedule: Q04DX002 (ip), vehicle: saline with Tween-80) was 106 % of control, the T/C (dose: 25.0 mg/kg/injection, schedule: Q04DX002 (ip), vehicle: saline with Tween-80) was 106 % of control and the T/C (dose: 50.0 mg/kg/injection, schedule: Q04DX002 (ip), vehicle: saline with Tween-80) was 103 % of control.

`N#Cc1ccc(S(=O)(=O)N=C(N)N)cc1` was tested, and the T/C [10] was 100 % of control, the T/C [11] was 91 % of control and the T/C [12] was 90 % of control.

For `Cc1cccc(CO)c1NC(=O)NCCCl`, the T/C [1] was 99 % of control, the T/C [2] was 110 % of control and the T/C [3] was 103 % of control.

For `Clc1ccccc1C1OC1c1ccccc1Cl` (stereo unspecified), the T/C [4] was 105 % of control, the T/C (dose: 100.0 mg/kg/injection, schedule: Q04DX002 (ip), vehicle: Klucel (hydroxypropylcellulose) (HPC)) was 98 % of control and the T/C [5] was 102 % of control. For the same molecule, the T/C (dose: 200.0 mg/kg/injection, schedule: Q04DX002 (ip), vehicle: Klucel (hydroxypropylcellulose) (HPC)) was 91 % of control, the T/C [6] was 94 % of control and the T/C (dose: 400.0 mg/kg/injection, schedule: Q04DX002 (ip), vehicle: Klucel (hydroxypropylcellulose) (HPC)) was 102 % of control.

With `CC1CN(C(=O)Nc2ccc(Cl)cc2)CC(C)O1` (stereo unspecified) the T/C [4] was 100 % of control, the T/C [1] was 100 % of control and the T/C [5] was 101 % of control. For the same molecule, the T/C [2] was 89 % of control, the T/C [6] was 113 % of control and the T/C [3] was 97 % of control.

With `Cc1cc(OC(=O)Nc2cccc(C(F)(F)F)c2)c(C(C)C)cc1Cl` the T/C [16] was 87 % of control, the T/C [17] was 91 % of control and the T/C [18] was 86 % of control.

With `CN(C)c1ccccc1C(=O)NNC(=S)Nc1ccccc1` the T/C [4] was 103 % of control, the T/C [1] was 96 % of control and the T/C [5] was 96 % of control. For the same molecule, the T/C [2] was 93 % of control, the T/C [6] was 93 % of control and the T/C [3] was 94 % of control.

For `CC(C)=NOC(=O)N(C)C`, the T/C [10] was 93 % of control, the T/C [11] was 96 % of control and the T/C [12] was 91 % of control.

In the case of `NC(N)=N/N=C/c1ccc2c(c1)CCC2`, the T/C (dose: 12.5 mg/kg/injection, schedule: Q04DX003 (ip), vehicle: saline) is reported as 101 % of control, the T/C (dose: 25.0 mg/kg/injection, schedule: Q04DX003 (ip), vehicle: saline) is reported as 97 % of control and the T/C (dose: 50.0 mg/kg/injection, schedule: Q04DX003 (ip), vehicle: saline) is reported as 97 % of control.

`CCCCN1C(=O)c2cccnc2C1=O` was tested, and the T/C (dose: 75.0 mg/kg/injection, schedule: Q04DX003 (ip), vehicle: Klucel (hydroxypropylcellulose) (HPC)) was 102 % of control, the T/C (dose: 100.0 mg/kg/injection, schedule: Q01DX001 (ip), vehicle: saline with Tween-80) was 103 % of control and the T/C [13] was 103 % of control. For the same molecule, the T/C (dose: 150.0 mg/kg/injection, schedule: Q04DX003 (ip), vehicle: Klucel (hydroxypropylcellulose) (HPC)) was 96 % of control, the T/C (dose: 200.0 mg/kg/injection, schedule: Q01DX001 (ip), vehicle: saline with Tween-80) was 97 % of control and the T/C (dose: 300.0 mg/kg/injection, schedule: Q04DX003 (ip), vehicle: Klucel (hydroxypropylcellulose) (HPC)) was 95 % of control. The T/C (dose: 400.0 mg/kg/injection, schedule: Q01DX001 (ip), vehicle: saline with Tween-80) was 93 % of control and the T/C [15] was 95 % of control.

In the case of `CC(=O)Nc1cccc2c1CCCC2`, the T/C [16] is reported as 98 % of control, the T/C (dose: 100.0 mg/kg/injection, schedule: Q04DX003 (ip), vehicle: gum acacia) is reported as 95 % of control and the T/C [17] is reported as 97 % of control. For the same molecule, the T/C (dose: 200.0 mg/kg/injection, schedule: Q04DX003 (ip), vehicle: gum acacia) was 96 % of control, the T/C [18] was 103 % of control and the T/C (dose: 400.0 mg/kg/injection, schedule: Q04DX003 (ip), vehicle: gum acacia) was 95 % of control.

For `NC(=O)C1CCCCC1C(N)=O` (stereo unspecified), the T/C [13] was 96 % of control, the T/C [14] was 102 % of control and the T/C [15] was 96 % of control.

`O=C1/C(=C/c2ccccn2)COc2ccccc21` was tested, and the T/C (dose: 100.0 mg/kg/injection, schedule: Q04DX003 (ip), vehicle: carboxymethylcellulose (CMC)) was 93 % of control, the T/C (dose: 200.0 mg/kg/injection, schedule: Q04DX003 (ip), vehicle: carboxymethylcellulose (CMC)) was 95 % of control and the T/C (dose: 400.0 mg/kg/injection, schedule: Q04DX003 (ip), vehicle: carboxymethylcellulose (CMC)) was 103 % of control.

`O=C(CCl)NCCCC1CCCCC1` was tested, and the T/C (dose: 12.5 mg/kg/injection, schedule: Q04DX002 (ip), vehicle: saline) was 100 % of control, the T/C (dose: 25.0 mg/kg/injection, schedule: Q04DX002 (ip), vehicle: saline) was 96 % of control and the T/C (dose: 50.0 mg/kg/injection, schedule: Q04DX002 (ip), vehicle: saline) was 104 % of control.
